The text below walks through data of patent US20240173456A1, “THERAPEUTIC COMPOSITIONS FOR WOUND TREATMENT” (GlycoSurf, Inc., priority 2022, published 2024).

The test system of data set [1] is neonatal human dermal fibroblast (hDFn) cells. The data set is described as follows: Cellular migration assay (scratch, mock wound), with or without uranyl nitrate (depleted uranium) exposure. Format: cell-based. How it is done: Preparation of Depleted Uranium Solution. Approximately 0.005 g of uranyl nitrate (UN) crystals, purchased from American Scientific were weighed and solubilized in 40 mL of Dulbecco's modified eagle medium (DMEM) containing 10% fetal bovine serum (FBS) (DMEM complete) from Gibco® to create an initial working stock solution. Uranyl nitrate stock underwent 60 seconds of pipette mixing to confirm proper disintegration prior to vacuum sterilization using a 0.22 μm filter. Molecular weight was used to calculate the appropriate starting molarity before utilizing weight-volume concentrations to obtain the following experimental dilutions: 0.1 μM, 0.2 μM, 1.0 μM, 2.0 μM, 10 μM, 20 μM made from the sterile-filtered stock solution.
Cell Culture of Neonatal Human Dermal Fibroblasts (hDFn). Passage one neonatal human dermal fibroblast (hDFn) cells were purchased from Cell Applications, Inc. (P1, lot #1734). The hDFn cells were incubated at 37° C., 5% CO2, and passaged using a T-75 tissue culture flask from Corning, completing media changes every 48 hours until 90% confluency was met. Cells were subcultured at a density of 10×10^5 cells/mL, frozen in DMEM containing 10% DMSO, and stored at −80° C. for 24 hours before being placed in liquid nitrogen vapor phase for long-term preservation. The subsequent process was repeated until passage 4 isolates were frozen down.
Rhamnolipid Solution. About 0.0125 g of rhamnolipids (Rha-C10-C10) from Glycosurf were weighed and diluted in 50 mL of 1× phosphate-buffered saline (PBS) to obtain a 200 μM rhamnolipid stock solution. The solution was heated prior to being vortexed for maximum dissolution and sterilized through a vacuum using a 0.22 μm filter. The molarity of rhamnolipid stock solution was found using actual mass ([…]) and molecular weight to calculate experiment dilutions of 6.25 μM, 50 μM, and 100 μM.
Cellular Migration Assay. Human neonatal dermal fibroblasts (hDFn) passage 4, were seeded into a T-75 flask at 10×10^5 cells/mL density and grown in a standing incubator at 37° C., 5% CO2. Once 90% confluence was reached, hDFn were subcultured into 12-well plates, and respective UN treatments with or without rhamnolipids were added. After 24 hours, contents were removed, and the monolayer of fibroblasts was scratched vertically using a sterile pipet tip creating the mock wound (FIG. 1). Wells were then washed twice with Hanks' Balanced Salt Solution (HBSS). Respective treatments were added back into wells and cellular migration rates were monitored and imaged over time (0 hours, 12 hours, and 24 hours). Percent closure rates were collected using MATLAB®.
(§1) Statistical Analysis. Statistically significant differences were determined using GraphPad Prism. The results of the cellular migration assay were analyzed with a one-way ANOVA and Tukey post hoc evaluation. The PBCQ assay was analyzed using a one-way ANOVA and Tukey post hoc evaluation. For all experiments, a p-value<0.05 was considered statistically significant in this study.

The subject of data set [2] is hDFn cells. The data set is described as follows: PrestoBlue assay, metabolic activity. Conditions: vs control. Format: cell-based, human. The procedure: (§2) PrestoBlue™ and CyQUANT™ Direct Assay. PrestoBlue™ and CyQuant™ (PBCQ) direct confirmation assay (from ThermoFisher®) for cell viability was used to assess the biocompatibility of hDFn cells in DMEM complete media with varying concentrations of rhamnolipids. Passage 5 hDFn cells were seeded at 11,200 cells/mL density into black wall, clear bottom 96-well tissue culture plates. The cells were placed inside the standing incubator at 37° C. and 5% CO2 until reaching 70-90% confluence. […] The plate layout included blank wells containing DMEM complete media and the corresponding rhamnolipid concentrations. Following 24 hours, 100 μL was removed from each well and replaced with 10 μL of the PrestoBlue reagent. The plates were then incubated for 20 minutes at 37° C. and 5% CO2 prior to being placed in the Biotek® Synergy HT fluorescence microplate reader at 590 nm with a gain value of 35. Afterward, 100 μL of the CyQuant reagent composition was added to all wells and incubated for 60 minutes. The plates were read using the same microplate reader at 528 nm with a gain of 70. The relative fluorescence units (RFU) were produced for all wells, correlating with the metabolic output per unit of DNA.
as §1
(§3) The control scaffold, the SEM image of which is shown in FIG. 5A, was not impregnated with rhamnolipids, or had hDFn cells seeded onto it. In particular, the observable porosity is not structurally different in FIG. 5A compared to the other images (FIGS. 5B-5E) depicting impregnated scaffolds without cells. As the percentage of rhamnolipids increased, the porosity of the scaffold remained relatively similar to the control. […] Visually, the hDFn cells appeared to have been able to adhere and colonize onto impregnated scaffolds which could be further explored to better understand the cytocompatibility of rhamnolipids and if their morphology is influenced by the concentration of the surfactant. PrestoBlue™ and CyQUANT™ Direct Assay. The PrestoBlue™ and CyQUANT™ Direct assays were used to determine the cellular compatibility of hDFn cells when in the presence of rhamnolipids. The PrestoBlue™ assay is a resazurin-based solution when upon entering a living cell, the reagent is reduced to resorufin which is red in color and fluorescent. The overall health of the cell can be observed by changes in fluorescence and subsequently absorbance. […] The CyQUANT™ Direct assay is a cell-permeant green nucleic acid stain that is combined with a masking dye reagent. The masking dye stops the staining of non-viable cells or cells with compromised cell membranes, resulting in only the viable cells being stained. The CyQUANT™ Direct assay measures proliferation as well as membrane integrity. The data was evaluated using GraphPad Prism to run a one-way ANOVA.

The test system of data set [3] is hDFn cells. The data set is described as follows: CyQUANT Direct assay, DNA content of living cells. The settings on record: vs control. Format: cell-based, human. How it is done:
as §2, §1, §3

For data set [4], the system named is Human dermal neonatal fibroblasts (hDFn). The data set is described as follows: Rhamnolipid vs. thioglycolipid comparative scratch assay. Format: cell-based. The settings on record: 6.25-50 μM, over 24 hours, particularly at the 4-hour and 8-hour time marks, FIGS. 9, 10A-10B. The procedure:
Rhamnolipid vs. Thioglycolipid Comparative Scratch Assays. Human dermal neonatal fibroblasts (hDFn) were seeded in 3×12-well plates at 10,000 cell/cm^2. Media (Dulbecco's Modified Eagle Medium (DMEM)) was changed every 48 hours. Plates were imaged every 4 hours for 24 hours. Plates were analyzed via MATLAB® and RStudio®.

Molecules are shown by their SMILES.

As for `CCCCCCC[C@H](CC(=O)O)OC(=O)C[C@@H](CCCCCCC)O[C@@H]1O[C@@H](C)[C@H](O)[C@@H](O)[C@H]1O` [rhamnolipids, Rha-C10-C10], the mean percent closure result in data set [1] (24 hours post-wound, across the different treatments (considered closed)) is “no statistically significant difference”; in data set [1] (absence of UN, low concentration of rhamnolipids (6.25 μM), vs control), “no statistically significant difference”. The “cellular migration (percent closure)” value in data set [1] (absence of UN, high dose of rhamnolipids (50 μM), 12 hours post-wound, vs control, Tukey's p=0.001) is given as “statistically significant increase”. Moreover, the “percent closure (migration rate)” value is on record as “statistically significant increase” in data set [1] (hDFn exposed to 0.1 μM UN + 50 μM rhamnolipids, 12 hours post-wound, vs control, p-value=0.021); “statistically significant increase” in data set [1] (hDFn exposed to 1.0 μM UN + 6.25 μM rhamnolipids, 12 hours post-wound, p-value=0.012); “statistically significant increase” in data set [1] (hDFn exposed to 1.0 μM UN + 50 μM rhamnolipids, 12 hours post-wound, vs control, p-value<0.001); “statistically significant increase” in data set [1] (hDFn exposed to 10 μM UN + 50 μM rhamnolipids, 12 hours post-wound, vs control, p-value=0.009). Further, the “metabolic activity (RFU)” value in the data set with hDFn cells [2] (6.25 μM rhamnolipids, 24 hours, n=6 (FIG. 7A), Tukey's p<0.001) is given as “statistically significant increase”; with hDFn cells [2] (6.25 μM rhamnolipids, n=12 (FIG. 8A), Tukey's p<0.001), “statistically significant increase”; in the data set on hDFn cells [2] (50 μM rhamnolipids, 24 hours, n=6 (FIG. 7A), Tukey's p<0.001), “statistically significant increase”; in the data set on hDFn cells [2] (50 μM rhamnolipids, n=12 (FIG. 8A), Tukey's p<0.001) it was “statistically significant increase”; in the data set with hDFn cells [2] (maximum concentration of rhamnolipids (100 μM), n=12 (FIG. 8A)), “statistically significant decrease”. Moreover, the “cellular DNA content (RFU)” value is “statistically significant decrease” in the data set on hDFn cells [3] (100 μM rhamnolipids, n=12 (FIG. 8B)) and “statistically significant increase” with hDFn cells [3] (low concentration of rhamnolipids (6.25 μM), 24 hours, n=6 (FIG. 7B), Tukey's p<0.001). Moreover, the “living DNA content (RFU)” value in the data set on hDFn cells [3] (high concentration of rhamnolipids (50 μM), 24 hours, n=6 (FIG. 7B)) is on record as “no statistically significant difference”; in the data set with hDFn cells [3] (high concentration of rhamnolipids (50 μM), n=12 (FIG. 8B)), “no statistically significant difference”; with hDFn cells [3] (low concentration of rhamnolipids (6.25 μM), n=12 (FIG. 8B)), “no statistically significant difference”. Moreover, in data set [4], the “wound healing (percent closure) compared with thioglycolipid compositions” value is recorded as “faster healing”.
